# Assay results reported in ChEMBL document CHEMBL3507680, “University of Dundee, Gates Library screen for HepG2 cell viability”.
# Experiment: Human HepG2 cell viability assay in 384 well format
# Format: toxicity, cell-based
# Design: dose 125 nL, time 70.5 hour; concentration not given beside the values
# Conditions: HepG2 cells, read-out: Inhibition
row,SMILES,cytotoxicity at 70.5 h [%]
1,CN1CCOCC2(CCCN(C(=O)c3cnccn3)C2)C1 (configuration not stated),0.574
2,CN(CC(=O)NC1CC1)S(=O)(=O)c1ccc(F)cc1Cl,-3.95
3,CNC(=O)NC(=O)C(NCc1cccs1)c1ccccc1 (configuration not stated),34.4
4,COC(=O)CCNC(=O)c1ccoc1CN1c2ccccc2CC1C (configuration not stated),-1.15
5,CN(CCCc1cnn(C)c1)C(=O)C1CCOC1 (configuration not stated),12.6
6,Cc1cc(C)n(CCCNC(=O)C2CCCO2)n1 (configuration not stated),2.61
7,Cc1cc(-c2ccc(=O)n(CCNC(=O)C3CC3)n2)c(C)o1,0.992
8,Cc1cc(C(C)NC(=O)CCn2nnc3ccccc3c2=O)c(C)o1 (configuration not stated),-5.41
9,CCC1CCCCCN1C(=O)c1coc(S(=O)(=O)N(C)C)c1 (configuration not stated),-12.3
10,Cc1n[nH]c(C)c1NC(=O)CN1CCN(c2nccs2)C(C)C1 (configuration not stated),-1.01
11,CCc1nc(C)c(C(=O)N2CCCC(c3noc(C)n3)C2)s1 (configuration not stated),-6.51
12,NC(=O)NC(=O)CCN1CCCN(c2nccs2)CC1,0.668
13,Cc1cccc(N2CCOCC3(C2)CN(c2cnn(C)c2)C(=O)CO3)n1 (configuration not stated),16.9
14,O=C(O)c1ccccc1CN1CCCC(Cc2ccn[nH]2)C1 (configuration not stated),-8.52
15,CCCC(O)CN1CCC(=O)N(CCOC)Cc2ccccc21 (configuration not stated),-10.1
16,CSc1ccc(NC(=O)COCc2ccccc2)nc1,15
17,CC(C)c1cc(CNC(=O)Nc2cc(F)cc(N3CCCC3)c2)on1,17.1
18,Cc1nc(C2CCN(S(=O)(=O)c3ccc(Cl)cc3)CC2)n[nH]1,1.07
19,c1cnn(-c2ccc(CN3CCOC(Cn4cncn4)C3)cc2)c1 (configuration not stated),18.2
20,O=C(CC1CCCC1)N1C[C@H](Oc2cccnc2)[C@H]2OCCC[C@H]21,-16.9
21,Cc1nnc2n1CCN(C(=O)c1cnc(C3CC3)s1)C2,-2.96
22,COc1ccccc1Oc1ncccc1CNC(=O)[C@H](N)CC(C)(C)C,-5.62
23,O=C(c1cnccn1)N1CCc2ncnc(-c3cccnc3)c2CC1,-16.1

row,SMILES,cytotoxicity at 70.5 h [%]
1,CCOC1CCN(C(=O)CN(C)c2cnccn2)CC1,-4.29
2,Cc1cc(NS(=O)(=O)c2c[nH]c3ncccc23)no1,0.354
3,c1cc(NCc2ccsc2)cc(-c2nnc[nH]2)c1,1.3
4,O=C(NCC1CC1)[C@@H]1CC[C@@H]2[C@@H](CCN2CCOCc2ccccc2)O1,-9.94
5,CCS(=O)(=O)N1CCc2c(cccc2NCc2ncc[nH]2)C1,-10
6,CN1CCc2nc(C3CCCN(S(=O)(=O)c4ccccc4)C3)ncc2C1 (configuration not stated),-1.43
7,CCCn1ncc(C(=O)NCCc2[nH]nc3c2CCCC3)c1C,-5.62
8,CCCC1c2ccccc2CCN1CCS(C)(=O)=O (configuration not stated),-3.74
9,CCC(NC(=O)C1CCN(C(C)C)CC1)c1cn2cccnc2n1 (configuration not stated),-2.43
10,CN(C)C(=O)CN1CCC2(CCCN(Cc3cccn3C)C2)C1=O (configuration not stated),25.7
11,Cc1cnn(C2CN(C(C)c3nc(-c4ccccc4)no3)C2)c1 (configuration not stated),-8.84
12,CNc1cncc(C2CCCN2C(=O)CCn2ccnc2C(C)C)n1 (configuration not stated),-3
13,Cc1nnc([C@@]23CCO[C@@H]2CCN(S(C)(=O)=O)C3)o1,-0.978
14,O=C(c1cccc(F)c1)N1CCC2(CC1)CC(N1CCOCC1)C2,-14.8
15,N#Cc1cnc(NCc2cccc(C(=O)N3CCCC3)c2)c(Cl)c1,-1.9
16,NC(=O)COCCNC(=O)Nc1sc2ccccc2c1Cl,-9.32
17,COCCN1C[C@H]2CCN(c3ncccn3)CC[C@H]2S1(=O)=O,-3.17
18,CCCN(Cc1ccccc1)Cn1nc(C)c2c(C)onc2c1=O,0.0673
19,Cc1noc(CN(Cc2ccc3c(c2)OCCO3)Cc2ccco2)n1,-3.69
20,CCn1c(=O)n(CCC(=O)N(C)Cc2ccc(C)o2)c2ccccc21,-4.18
21,CO[C@H]1CN(Cc2cc(Cn3cncn3)c(C)cc2C)CC[C@H]1N,6.57
22,CCc1ncc2c(n1)CN(c1cc(N3CCN(C)CC3)nc(N)n1)C2,25
23,CCCc1nc(N2CCCC(C)C2)c2c(n1)c(C)nn2CC (configuration not stated),-4

row,SMILES,cytotoxicity at 70.5 h [%]
1,CSCC(=O)N(C)Cc1noc(-c2ccccc2)n1,-9.48
2,CC(C)C(=O)N1CCN(C(=O)c2cc(C(C)C)on2)[C@H]2CS(=O)(=O)C[C@H]21,14.2
3,CC(C)OC(=O)N1C[C@H]2CC[C@@H]1CN(Cc1cccnc1)C2,-3.17
4,Cc1cc(C(=O)N2CCC(NC(=O)c3cccnc3)CC2)c(C)o1,-9.02
5,CC(C)(C)NC(=O)N1CCN(Cc2cccnc2)CC1,-3.39
6,Cc1cc(C(=O)N2CCC[C@]3(C[C@H](OCC4CC4)CO3)C2)no1,-0.0994
7,CCn1ncc2c1CCCC2NCc1cccc2c1OCO2 (configuration not stated),15.8
8,CC(C)Cn1c(=O)nc2n1C(=O)N(c1ccc(F)cc1)C2,-25.8
9,Cc1cnn(C2CCCN(C(=O)c3cnc4ccccc4n3)C2)c1 (configuration not stated),-7.22
10,CCc1nnc(Nc2cccc(C3CCN(CC4CC4)CC3)n2)s1,-7.67
11,O=C(C1=CCCC1)N1CCC[C@]2(C[C@@H](Oc3ncccc3F)CO2)C1,-6.43
12,Cc1nccc(N2CCCC(C)(c3[nH]ncc3C(N)=O)C2)n1 (configuration not stated),-4.04
13,CC(C)(C)c1coc([C@@H]2COCCN2Cc2c[nH]c3ccccc23)n1,1.59
14,Cc1csc(CN(C)C(=O)C2CCC(=O)N(CCN(C)C)C2)n1 (configuration not stated),-3.99
15,Cc1cc(C)n(CC2CN(Cc3cc(C)on3)CCO2)n1 (configuration not stated),-3.83
16,CCc1ccc(CN2CCC(CNS(=O)(=O)C3CC3)C2)nc1 (configuration not stated),-2.29
17,CCc1ccccc1OCC(=O)Nc1ccnc(OCCN(C)C)c1,3.03
18,Cc1ncc2c(n1)CN(C(C(N)=O)c1ccc(F)cc1)CC2 (configuration not stated),-2.82
19,CCC(C)NS(=O)(=O)Cc1cccc(NC(=O)C2=CCCC2)c1 (configuration not stated),-4.4
20,Cc1cnc(N2CCC(c3ccncc3)CC2)nc1-c1ccnn1C,-12.9
21,CCc1nc(C)c(C(=O)N2CCNCC2C(=O)Nc2ccc(C)nc2)o1 (configuration not stated),-3.52
22,Cc1cc(O)c(OCC(=O)/N=c2\[nH]c(C)cs2)cn1,-2.18
23,CN(C)C(=O)N1CCN(Cc2ccccc2)[C@@H]2CS(=O)(=O)C[C@@H]21,-7.42

row,SMILES,cytotoxicity at 70.5 h [%]
1,O=C(C1CCCN(Cc2cccnc2)C1)N1CCc2sccc2C1 (configuration not stated),-5.24
2,Cc1ccccc1C1CN(c2cnn(C)c(=O)c2Cl)CCO1 (configuration not stated),-1.35
3,CC(C)c1sc(Cl)nc1C(=O)N1CCN(c2ccccn2)CC1,29.7
4,CCOc1ccccc1C(N)CC(C)C (configuration not stated),-0.686
5,O=C(c1ccncc1)N1CCCC1c1cccc(Br)c1 (configuration not stated),21.6
6,Cc1nc(C)n(CC2CCCN(CCCS(=O)(=O)N(C)C)C2)n1 (configuration not stated),-0.887
7,O=C(Nc1nncs1)N1CCC(CCc2ccc(O)cc2)CC1,-14.7
8,Cc1nc2c(c(NC(C)C)n1)CCN(C(=O)c1cc[nH]n1)CC2,-8.54
9,Cc1ccc(C(=O)NC2CCN(Cc3nc(C(C)C)no3)CC2)s1,-5.38
10,CC(C)CN1CCOC[C@H](Oc2ccc(S(C)(=O)=O)cc2)C1,13.8
11,COc1cc(CN(CCCN(C)C)Cc2ccccn2)cc2c1OCO2,0.223
12,Fc1ccc(-c2nnc(CN3CCn4c(nnc4C4CC4)C3)o2)cc1,-5.47
13,CC(C)c1ccc(CNC(c2ccc(F)cn2)C(C)C)cc1 (configuration not stated),0.89
14,CN(C)c1ncccc1CNCc1cccc(O)c1,-12.2
15,O=C([C@H]1C[C@H]2OCC[C@H]2N(C(=O)c2cnccn2)C1)N1CCCCO1,-8.15
16,Cc1cc(C)n(CC(C)NCc2cnc3c(C)cccn23)n1 (configuration not stated),-2.32
17,O=C(COc1coc(CN2CCCCCC2)cc1=O)c1ccccc1,25.4
18,Cc1ccc(-c2cn[nH]c2C2CCCN(c3cnccn3)C2)cc1 (configuration not stated),10.6
19,CC(c1nc(C2CC2)no1)N1CCN(Cc2nnc(C3CC3)o2)CC1 (configuration not stated),-2.67
20,O=C(Nc1cc(-c2cccnc2)no1)C1CCC1,-13
21,CC(C)Cc1n[nH]c(C2CC(=O)N(CC(C)C)C2)n1 (configuration not stated),-5.1
22,CCc1oc(C(=O)NC(C)c2ncn[nH]2)cc1CN1CCCC1 (configuration not stated),-10.5
23,CO[C@@]1(C)C[C@@H](O)C12CCN(C(=O)C1(c3ccccc3F)CC1)CC2,9.4

row,SMILES,cytotoxicity at 70.5 h [%]
1,CCOC(=O)CSc1ccc(-c2nc(C)no2)cn1,1.96
2,Cn1ccc(C(=O)Nc2nc(-c3ccc(Cl)cc3)n[nH]2)cc1=O,24.6
3,Cc1cc(CN2CCN(C(=O)NCc3ccc(C)s3)CC2)on1,-2.93
4,CCc1nc(C2CCCN2C(=O)c2cc(Cl)c[nH]2)no1 (configuration not stated),-2.89
5,COc1ccc(CN2C[C@H](OCC3CCOCC3)[C@H]3COC[C@H]32)cc1,-9.69
6,OCc1ccc(CN(CCCn2ccnc2)Cc2cccnc2)o1,-8.65
7,Cc1cc(CN(C)c2nc(-c3ccccn3)nc3c2CCNCC3)n[nH]1,-11.1
8,CCC[C@H]1CN(C(=O)c2ccc3[nH]c(CO)nc3c2)C[C@@H]1N,-27.1
9,CCc1oc(C(=O)N2CCCC(c3nnn[nH]3)C2)cc1C (configuration not stated),-4.85
10,O=C(c1cccc(CNS(=O)(=O)c2ccc(F)cc2)c1)N1CCCC1,-9.64
11,CC(C)NC(=O)CC(C)NCc1ccc(F)cc1Cl (configuration not stated),-3.7
12,CCN(CC1CCCO1)C(=O)CSCC(=O)Nc1ccc(C)cc1 (configuration not stated),-1.48
13,Cc1nc(C)n(CC2CN(CCc3cccs3)CCO2)n1 (configuration not stated),-5.27
14,COc1cccc(/C=C/CCN2CCN(S(C)(=O)=O)CC2)c1,-3.47
15,Cc1cc(C(=O)N2C[C@H]3CC[C@@H]2CN(Cc2ccccn2)C3)nc(N)n1,23.1
16,CC(C(=O)NCc1ccc(N2CCNC(=O)C2)cc1)n1cncn1 (configuration not stated),4.32
17,Cc1ccnc(NCc2ccccc2N2CCOCC2)n1,-16.7
18,CC(C)CC(C#N)NC(=O)c1ccc(Oc2cccnc2)cc1 (configuration not stated),-5.49
19,Cn1cccc1C(=O)N1CCCC2(CCCN2S(C)(=O)=O)C1 (configuration not stated),-8.52
20,CCN(CC1COc2ccccc2O1)C(=O)CCn1cncn1 (configuration not stated),-5.89
